Data from ChEMBL document CHEMBL6078631, “Covalent inhibitors meet epigenetics: New opportunities” (Eur J Med Chem, 2024).

Target: RNA cytosine C(5)-methyltransferase NSUN2 (Homo sapiens) (UniProt Q08J23)
Experiment: Binding affinity to human NSUN2 assessed as ratio of kinact/Ki

RNA cytosine C(5)-methyltransferase NSUN2 (Homo sapiens), sequence (Q08J23 whole entry): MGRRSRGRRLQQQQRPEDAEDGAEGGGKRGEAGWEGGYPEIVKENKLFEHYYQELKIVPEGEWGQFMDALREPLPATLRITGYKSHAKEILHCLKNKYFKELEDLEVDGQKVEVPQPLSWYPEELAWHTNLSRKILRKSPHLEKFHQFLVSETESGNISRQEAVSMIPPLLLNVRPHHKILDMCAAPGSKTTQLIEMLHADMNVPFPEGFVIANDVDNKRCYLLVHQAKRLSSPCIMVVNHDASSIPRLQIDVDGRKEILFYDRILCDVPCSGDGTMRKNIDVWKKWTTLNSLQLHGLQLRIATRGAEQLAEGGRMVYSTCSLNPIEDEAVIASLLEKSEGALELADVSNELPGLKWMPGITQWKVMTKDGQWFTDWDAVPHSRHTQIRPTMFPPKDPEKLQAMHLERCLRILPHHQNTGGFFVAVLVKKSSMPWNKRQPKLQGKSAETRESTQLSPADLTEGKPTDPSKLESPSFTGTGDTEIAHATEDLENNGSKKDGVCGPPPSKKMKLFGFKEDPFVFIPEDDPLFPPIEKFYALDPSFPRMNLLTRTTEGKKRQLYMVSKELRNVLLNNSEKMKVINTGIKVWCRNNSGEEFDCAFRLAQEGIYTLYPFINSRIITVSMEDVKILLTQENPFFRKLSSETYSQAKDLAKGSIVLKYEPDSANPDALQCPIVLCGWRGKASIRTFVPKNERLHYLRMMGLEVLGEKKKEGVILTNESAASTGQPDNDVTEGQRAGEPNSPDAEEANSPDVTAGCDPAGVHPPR

- kinact/Ki: 67 M⁻¹ s⁻¹
Compound: C=CC(=O)N1C[C@H](c2ccc(Br)cc2)[C@@H]1C(=O)Nc1cccc2cccnc12
